For experiment [1], the target named is FGFR2 (h) (Homo sapiens, UniProt P21802). Kind of experiment: FGFR2 (enzymatic assay), TR-FRET. In kind it is biochemical. The conditions noted are these: read-out: FGFR 2 pIC50 (converted). As for the experimental part: In a final reaction volume of 30 μL, FGFR2 (h) (150 ng/ml) was incubated with 50 mM HEPES pH 7.5, 6 mM MnCl2, 1 mM DTT, 0.1 mM Na3VO4, 0.01% Triton-X-100, 500 nM Btn-Flt3 and 0.4 μM ATP in the presence of compound (1% DMSO final). […] Time-Resolved Fluorescence Resonance Energy Transfer (TR-FRET) signal (ex340 nm. Em 620 nm, em 655 nm) was measured afterwards and results are expressed in (Relative Fluorescence Units).
On the technique in general: In TR-FRET formats the signal depends on donor and acceptor labels being close together.

Experiment [2] concerns the target FGFR3 (h) (Homo sapiens, UniProt P22607). The experiment can be described thus: FGFR3 (enzymatic assay), TR-FRET. In kind it is biochemical. To be noted: read-out: FGFR 3 pIC50 (converted). The protocol: In a final reaction volume of 30 μL, FGFR3 (h) (40 ng/ml) was incubated with 50 mM HEPES pH 7.5, 6 mM MnCl2, 1 mM DTT, 0.1 mM Na3VO4, 0.01% Triton-X-100, 500 nM Btn-Flt3 and 25 μM ATP in the presence of compound (1% DMSO final). […] Time-Resolved Fluorescence Resonance Energy Transfer (TR-FRET) signal (ex340 nm. Em 620 nm, em 655 nm) was measured afterwards and results are expressed in RFU (Relative Fluorescence Units).

Experiment [3] addresses FGFR4 (h) (Homo sapiens, UniProt P22455). The experiment can be described thus: FGFR4 (enzymatic assay), TR-FRET. In kind it is biochemical. To be noted: read-out: FGFR 4 pIC50 (converted). As for the experimental part: In a final reaction volume of 30 μL, FGFR4 (h) (60 ng/ml) was incubated with 50 mM HEPES pH 7.5, 6 mM MnCl2, 1 mM DTT, 0.1 mM Na3VO4, 0.01% Triton-X-100, 500 nM Btn-Flt3 and 5 μM ATP in the presence of compound (1% DMSO final). […] Time-Resolved Fluorescence Resonance Energy Transfer (TR-FRET) signal (ex340 nm. Em 620 nm, em 655 nm) was measured afterwards and results are expressed in RFU (Relative Fluorescence Units).

Experiment [4] deals with KDR (h) (VEGFR2) (Homo sapiens, UniProt P35968). Kind of experiment: KDR (VEGFR2) (enzymatic assay), TR-FRET. In kind it is biochemical. A digest of the protocol: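 TR-FRET readout (ex 340, em 620/655 nm) in RFU after EDTA stop with Eu-anti-phosphotyrosine and SA-XL665 for 60 min. The preceding 120-min room-temperature kinase step used 150 ng/ml KDR (h), 3 μM ATP, 500 nM biotinylated Flt3 peptide, MnCl2-containing HEPES buffer pH 7.5, 1% DMSO.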

In experiment [5] the target is Ba/F3-FGFR1-transfected cells (Homo sapiens, UniProt P11362). Kind of experiment: Ba/F3-FGFR1 (minus IL3) cellular proliferation assay, Alamar Blue. In kind it is cell-based. The conditions noted are these: for BAF3-FGFR 1 (MIN IL3) 384 well pIC50: minus IL3, 384 well; for BAF3-FGFR 1 (MIN IL3) 96 well pIC50: minus IL3, 96 well. A digest of the protocol: (§1)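 Compound-treated FGFR1-transfected Ba/F3 cells were cultured for 24 h (37 °C, 5% CO2) in RPMI-1640 with 10% FBS, with 10 ng/ml murine IL3 added for the counterscreen only. Viability was read as resazurin fluorescence (540/590 nm) after a further 4 h incubation with Alamar Blue.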
For orientation: Alamar Blue is a resazurin reagent that responds to reducing activity.

The test system of experiment [6] is Ba/F3-FGFR1-transfected cells in the presence of 10 ng/ml murine IL3. Kind of experiment: Ba/F3-FGFR1 (plus IL3) cellular proliferation counterscreen, Alamar Blue. In kind it is cell-based. The conditions noted are these: Mus musculus. An outline of the steps:
as §1

Experiment [7] deals with Ba/F3-FGFR4-transfected cells (Homo sapiens, UniProt P22455). The experiment can be described thus: Ba/F3-FGFR4 cellular proliferation assay, Alamar Blue. Type of experiment: cell-based. An outline of the steps: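 Alamar Blue fluorescence (540/590 nm, 4 h development) measured growth of FGFR4-transfected Ba/F3 cells after 24 h compound treatment at 37° C. Cells were seeded at 20000/well in RPMI-1640, 10% FBS.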

Setting [8] is: plus IL3, 384 well, read-out: BAF3-FGFR 1 (PLUS IL3) 384 well pIC50 (converted).
Where [9] appears, read: plus IL3, 96 well, read-out: BAF3-FGFR 1 (PLUS IL3) 96 well pIC50 (converted).

pIC50: −log10 of the molar value. Like-named read-outs stand apart in the source and are kept apart here.

The pIC50 is the IC50 on a negative log10 scale, so that one unit is a factor of ten.

Chain of KDR (h) (VEGFR2) (P35968 20-1356): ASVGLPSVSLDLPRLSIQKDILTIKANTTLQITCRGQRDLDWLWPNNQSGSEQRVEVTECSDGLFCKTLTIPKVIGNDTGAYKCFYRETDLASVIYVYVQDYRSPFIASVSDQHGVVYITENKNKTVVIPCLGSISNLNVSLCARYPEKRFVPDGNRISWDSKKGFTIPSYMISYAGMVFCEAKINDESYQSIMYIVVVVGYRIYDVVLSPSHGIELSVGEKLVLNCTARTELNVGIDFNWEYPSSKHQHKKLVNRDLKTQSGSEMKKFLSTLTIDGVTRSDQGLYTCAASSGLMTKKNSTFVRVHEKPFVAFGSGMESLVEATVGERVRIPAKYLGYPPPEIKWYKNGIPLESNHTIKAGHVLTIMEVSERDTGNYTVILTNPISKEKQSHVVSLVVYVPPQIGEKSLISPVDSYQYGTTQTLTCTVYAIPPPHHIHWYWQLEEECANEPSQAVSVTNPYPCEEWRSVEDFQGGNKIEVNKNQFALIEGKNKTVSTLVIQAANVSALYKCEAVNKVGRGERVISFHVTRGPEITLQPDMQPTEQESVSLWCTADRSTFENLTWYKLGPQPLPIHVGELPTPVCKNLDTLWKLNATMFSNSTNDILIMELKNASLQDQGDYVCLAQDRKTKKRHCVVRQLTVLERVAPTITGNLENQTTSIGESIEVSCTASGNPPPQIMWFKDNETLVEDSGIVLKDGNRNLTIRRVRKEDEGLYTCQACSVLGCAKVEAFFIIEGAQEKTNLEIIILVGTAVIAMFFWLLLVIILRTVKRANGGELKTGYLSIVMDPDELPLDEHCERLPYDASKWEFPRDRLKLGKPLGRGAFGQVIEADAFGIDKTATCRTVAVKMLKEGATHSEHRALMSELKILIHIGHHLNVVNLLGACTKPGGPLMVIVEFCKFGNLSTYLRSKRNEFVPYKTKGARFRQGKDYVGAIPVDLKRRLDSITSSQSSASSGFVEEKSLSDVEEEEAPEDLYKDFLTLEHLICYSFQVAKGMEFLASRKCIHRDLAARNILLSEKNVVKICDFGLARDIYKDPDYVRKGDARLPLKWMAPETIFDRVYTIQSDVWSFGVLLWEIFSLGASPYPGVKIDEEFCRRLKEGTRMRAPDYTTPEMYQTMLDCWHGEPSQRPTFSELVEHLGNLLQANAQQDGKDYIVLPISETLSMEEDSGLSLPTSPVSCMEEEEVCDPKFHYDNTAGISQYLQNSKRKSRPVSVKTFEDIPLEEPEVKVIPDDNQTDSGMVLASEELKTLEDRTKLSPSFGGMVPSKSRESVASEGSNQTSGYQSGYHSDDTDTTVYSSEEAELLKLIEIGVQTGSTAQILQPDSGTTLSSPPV
Chain of Ba/F3-FGFR4-transfected cells (P22455 whole entry, change not shown): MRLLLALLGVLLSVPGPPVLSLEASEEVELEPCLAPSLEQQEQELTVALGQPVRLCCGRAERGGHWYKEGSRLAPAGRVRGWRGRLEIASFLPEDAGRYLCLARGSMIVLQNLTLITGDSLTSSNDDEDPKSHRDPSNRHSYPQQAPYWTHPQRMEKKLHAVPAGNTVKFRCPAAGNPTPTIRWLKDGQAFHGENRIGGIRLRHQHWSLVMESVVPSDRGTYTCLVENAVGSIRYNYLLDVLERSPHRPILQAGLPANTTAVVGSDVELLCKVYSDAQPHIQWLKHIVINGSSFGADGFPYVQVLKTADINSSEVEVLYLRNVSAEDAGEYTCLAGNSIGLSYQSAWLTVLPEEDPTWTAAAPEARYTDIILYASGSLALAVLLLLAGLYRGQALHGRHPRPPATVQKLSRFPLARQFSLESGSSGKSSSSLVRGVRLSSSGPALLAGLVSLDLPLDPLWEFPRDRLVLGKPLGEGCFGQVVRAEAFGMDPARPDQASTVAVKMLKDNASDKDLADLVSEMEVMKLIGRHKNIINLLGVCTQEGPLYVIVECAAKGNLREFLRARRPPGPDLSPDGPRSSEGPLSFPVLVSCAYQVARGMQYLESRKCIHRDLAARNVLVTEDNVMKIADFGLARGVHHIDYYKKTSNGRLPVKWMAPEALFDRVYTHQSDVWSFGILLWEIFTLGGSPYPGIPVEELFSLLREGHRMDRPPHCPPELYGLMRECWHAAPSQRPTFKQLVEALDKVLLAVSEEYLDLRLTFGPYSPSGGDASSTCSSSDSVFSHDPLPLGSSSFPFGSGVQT
Chain of Ba/F3-FGFR1-transfected cells (P11362 whole entry, change not shown): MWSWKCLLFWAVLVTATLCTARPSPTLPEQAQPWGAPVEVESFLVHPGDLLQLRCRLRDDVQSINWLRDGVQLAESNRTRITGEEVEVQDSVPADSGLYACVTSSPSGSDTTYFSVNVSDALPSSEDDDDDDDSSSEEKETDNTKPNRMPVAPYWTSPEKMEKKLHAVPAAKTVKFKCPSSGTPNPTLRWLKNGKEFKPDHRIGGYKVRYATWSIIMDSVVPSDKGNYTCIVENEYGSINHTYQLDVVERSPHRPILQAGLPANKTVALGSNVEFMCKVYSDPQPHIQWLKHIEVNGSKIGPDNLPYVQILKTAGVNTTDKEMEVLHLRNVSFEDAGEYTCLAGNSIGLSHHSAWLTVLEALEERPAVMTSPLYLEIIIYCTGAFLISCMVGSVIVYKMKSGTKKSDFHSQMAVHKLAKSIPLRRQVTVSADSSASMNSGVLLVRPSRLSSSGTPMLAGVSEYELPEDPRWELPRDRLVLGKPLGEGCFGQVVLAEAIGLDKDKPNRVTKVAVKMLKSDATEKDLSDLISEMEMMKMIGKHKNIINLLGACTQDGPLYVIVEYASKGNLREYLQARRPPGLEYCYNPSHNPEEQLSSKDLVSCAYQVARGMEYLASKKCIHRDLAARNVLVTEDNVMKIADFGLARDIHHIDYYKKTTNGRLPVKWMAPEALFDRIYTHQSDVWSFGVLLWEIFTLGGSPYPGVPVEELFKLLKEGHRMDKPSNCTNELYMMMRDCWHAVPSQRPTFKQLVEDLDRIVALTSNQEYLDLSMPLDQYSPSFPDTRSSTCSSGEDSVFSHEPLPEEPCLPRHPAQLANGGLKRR
Chain of FGFR4 (h) (P22455 22-802): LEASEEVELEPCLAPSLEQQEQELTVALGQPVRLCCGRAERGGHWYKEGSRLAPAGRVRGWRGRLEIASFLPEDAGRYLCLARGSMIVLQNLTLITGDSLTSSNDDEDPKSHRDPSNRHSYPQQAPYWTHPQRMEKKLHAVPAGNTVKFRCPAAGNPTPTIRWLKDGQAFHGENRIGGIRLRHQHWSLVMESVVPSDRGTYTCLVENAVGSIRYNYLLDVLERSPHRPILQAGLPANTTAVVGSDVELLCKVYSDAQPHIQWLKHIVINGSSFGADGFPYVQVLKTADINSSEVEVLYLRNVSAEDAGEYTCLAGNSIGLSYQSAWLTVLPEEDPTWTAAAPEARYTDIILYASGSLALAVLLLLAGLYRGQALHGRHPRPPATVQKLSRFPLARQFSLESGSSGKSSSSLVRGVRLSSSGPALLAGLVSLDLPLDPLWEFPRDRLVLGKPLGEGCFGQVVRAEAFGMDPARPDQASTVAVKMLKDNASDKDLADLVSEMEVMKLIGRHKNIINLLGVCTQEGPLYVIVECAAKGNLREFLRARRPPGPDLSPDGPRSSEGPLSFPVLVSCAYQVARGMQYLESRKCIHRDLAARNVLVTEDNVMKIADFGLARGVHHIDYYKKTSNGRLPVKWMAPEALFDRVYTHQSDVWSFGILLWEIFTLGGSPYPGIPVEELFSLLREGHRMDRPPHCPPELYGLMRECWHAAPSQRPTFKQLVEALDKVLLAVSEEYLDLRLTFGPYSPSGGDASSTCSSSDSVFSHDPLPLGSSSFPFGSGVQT
Chain of FGFR2 (h) (P21802 22-821): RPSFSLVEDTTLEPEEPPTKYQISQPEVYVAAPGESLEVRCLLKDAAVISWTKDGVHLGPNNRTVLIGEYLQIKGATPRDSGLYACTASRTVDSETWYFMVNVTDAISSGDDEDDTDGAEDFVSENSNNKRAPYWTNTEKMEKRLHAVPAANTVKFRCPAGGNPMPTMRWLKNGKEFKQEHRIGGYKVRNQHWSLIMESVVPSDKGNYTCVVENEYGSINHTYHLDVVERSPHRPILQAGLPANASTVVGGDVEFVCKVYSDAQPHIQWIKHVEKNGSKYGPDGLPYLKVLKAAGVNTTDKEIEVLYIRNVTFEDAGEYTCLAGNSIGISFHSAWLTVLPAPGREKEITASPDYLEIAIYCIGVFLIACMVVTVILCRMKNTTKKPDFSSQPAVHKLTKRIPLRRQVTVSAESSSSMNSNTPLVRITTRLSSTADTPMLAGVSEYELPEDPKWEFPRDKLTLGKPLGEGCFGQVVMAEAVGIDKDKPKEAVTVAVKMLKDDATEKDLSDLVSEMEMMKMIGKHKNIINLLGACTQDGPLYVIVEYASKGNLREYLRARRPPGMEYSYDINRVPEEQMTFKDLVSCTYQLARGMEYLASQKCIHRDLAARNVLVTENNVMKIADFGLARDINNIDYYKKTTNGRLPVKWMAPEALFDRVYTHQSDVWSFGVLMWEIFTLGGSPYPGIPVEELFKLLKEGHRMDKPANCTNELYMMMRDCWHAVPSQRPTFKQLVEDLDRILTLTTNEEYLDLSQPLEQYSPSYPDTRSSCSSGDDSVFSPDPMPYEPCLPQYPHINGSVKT

As to `CNC(=O)c1cc(-c2cnc3ccc(N(CCCNCC(F)(F)F)c4cc(OC)cc(OC)c4)cc3n2)ccn1` [Compound 122], the IC50 in experiment [1] was 46.8 nM; in experiment [2], 37.2 nM; in experiment [3] it was 316 nM; in experiment [6] (setting [8]), more than 10000 nM. This compound also had a pIC50 in experiment [4] of less than 6.00. Further, the “BAF3-FGFR 1 (MIN IL3) 384 well pIC50” value in experiment [5] was determined as 5.29. Moreover, the “BAF3-FGFR4 pIC50” value in experiment [7] is approximately 5.1.

In the case of `COc1cc(OC)cc(N(CC2CC2)c2ccc3ncc(-n4ccnc4C)nc3c2)c1` [Compound 32], the IC50 in experiment [1] is 575 nM; in experiment [2], 479 nM; in experiment [3], more than 1000 nM; in experiment [6] (setting [9]) it was more than 10000 nM; in experiment [6] (setting [8]) it was more than 10000 nM. In addition, the pIC50 in experiment [4] is less than 6.00. Further, the “BAF3-FGFR 1 (MIN IL3) 96 well pIC50” value in experiment [5] was less than 5. In addition, in experiment [5], the “BAF3-FGFR 1 (MIN IL3) 384 well pIC50” value is listed as less than 5. Further, the “BAF3-FGFR4 pIC50” value in experiment [7] is reported as less than 5.

Regarding `COc1cc(OC)cc(N(CC2CC2)c2ccc3ncc(C#Cc4ccncc4)nc3c2)c1` [Compound 23], the IC50 in experiment [1] was 427 nM; in experiment [2], 214 nM; in experiment [3] it was more than 1000 nM; in experiment [6] (setting [9]), 5890 nM; in experiment [6] (setting [8]), more than 10000 nM. This compound had a pIC50 in experiment [4] of less than 6.00. In experiment [5], the “BAF3-FGFR 1 (MIN IL3) 96 well pIC50” value is 5.41. In experiment [5], the “BAF3-FGFR 1 (MIN IL3) 384 well pIC50” value stood at 5.09. Besides, the “BAF3-FGFR4 pIC50” value in experiment [7] is less than 5.

As to `COc1cc(OC)cc(N(CC2CC2)c2ccc3ncc(-c4nccn4C)nc3c2)c1` [Compound 60], the IC50 in experiment [1] was 1410 nM; in experiment [2] it was 955 nM; in experiment [3] it was 1120 nM; in experiment [6] (setting [9]) it was more than 10000 nM; in experiment [6] (setting [8]) it was more than 10000 nM. Moreover, the pIC50 in experiment [4] was less than 5.00. In addition, the “BAF3-FGFR 1 (MIN IL3) 96 well pIC50” value in experiment [5] is less than 5. In addition, the “BAF3-FGFR 1 (MIN IL3) 384 well pIC50” value in experiment [5] is less than 5. Besides, the “BAF3-FGFR4 pIC50” value in experiment [7] was less than 5.

In the case of `COCCN(c1cc(OC)cc(OC)c1)c1ccc2ncc(-c3ccn(C)c3)nc2c1` [Compound 6], the IC50 was 12 nM in experiment [1], 6.92 nM in experiment [2], 24.5 nM in experiment [3] and more than 10000 nM in experiment [6] (setting [8]). Further, in experiment [4], the pIC50 is 6.97. Further, the “BAF3-FGFR 1 (MIN IL3) 384 well pIC50” value in experiment [5] is 5.84. Also, the “BAF3-FGFR4 pIC50” value in experiment [7] was 5.6.

On to `COc1cc(OC)cc(N(CCNC(C)C)c2ccc3ncc(-c4ccc(N)nc4)nc3c2)c1` [Compound 17], for which the IC50 in experiment [1] was 2.11 nM; in experiment [2], 3.2 nM; in experiment [3], 8.04 nM; in experiment [6] (setting [8]), approximately 7760 nM. The same compound had a negative-log IC50 (pIC50) in experiment [4] of 7.03. Further, in experiment [5], the “BAF3-FGFR 1 (MIN IL3) 384 well pIC50” value worked out at 6.975. The “BAF3-FGFR4 pIC50” value in experiment [7] is approximately 7.11.

As to `COc1cc(OC)cc(N(CCNC(C)C)c2ccc3ncc(-c4ccncc4)nc3c2)c1` [Compound 12], the IC50 is 2.45 nM in experiment [1], 4.47 nM in experiment [2], 20.4 nM in experiment [3] and more than 10000 nM in experiment [6] (setting [8]). In experiment [4], this compound showed a negative logarithm of the IC50 (pIC50) of 7.02. The “BAF3-FGFR 1 (MIN IL3) 384 well pIC50” value in experiment [5] stood at 7.27. The “BAF3-FGFR4 pIC50” value in experiment [7] came out at 6.8.

`CNC(=O)OCCN(c1cc(OC)cc(OC)c1)c1ccc2ncc(-c3ccc(NC(=O)OC(C)(C)C)nc3)nc2c1` [Compound 80]: the IC50 was 912 nM in experiment [1], approximately 347 nM in experiment [2], more than 1000 nM in experiment [3] and more than 10000 nM in experiment [6] (setting [8]). For the same compound, in experiment [4], the pIC50 was less than 6.00. Besides, in experiment [5], the “BAF3-FGFR 1 (MIN IL3) 384 well pIC50” value stood at 5.08. The “BAF3-FGFR4 pIC50” value in experiment [7] is given as less than 5.

Take `COc1cc(OC)cc(N(CC2CC2)c2ccc3ncc(-c4cnnn4C)nc3c2)c1` [Compound 72]: the IC50 in experiment [1] is 479 nM; in experiment [2], 389 nM; in experiment [3] it was more than 1000 nM; in experiment [6] (setting [9]), 7940 nM; in experiment [6] (setting [8]), more than 10000 nM. This compound also had a pIC50 in experiment [4] of less than 6.00. Further, in experiment [5], the “BAF3-FGFR 1 (MIN IL3) 96 well pIC50” value is 5.23. Further, the “BAF3-FGFR 1 (MIN IL3) 384 well pIC50” value in experiment [5] came to 5.18. In experiment [7], the “BAF3-FGFR4 pIC50” value is given as less than 5.

On to `COc1cc(OC)cc(N(CCCO)c2ccc3ncc(-c4cccnc4)nc3c2)c1` [Compound 112], for which the IC50 is 20.9 nM in experiment [1], 7.41 nM in experiment [2], 58.9 nM in experiment [3] and more than 10000 nM in experiment [6] (setting [8]). The compound further had a negative logarithm of the IC50 (pIC50) in experiment [4] of 6.33. Moreover, in experiment [5], the “BAF3-FGFR 1 (MIN IL3) 384 well pIC50” value is given as 6.11. In experiment [7], the “BAF3-FGFR4 pIC50” value is 5.8.

For `CNC(=O)c1cc(-c2cnc3ccc(N(CCN4CCCC4=O)c4cc(OC)cc(OC)c4)cc3n2)ccn1` [Compound 25], the IC50 in experiment [1] was 251 nM; in experiment [2], 282 nM; in experiment [3], more than 1000 nM; in experiment [6] (setting [8]), more than 10000 nM. For the same compound, in experiment [4], the pIC50 is less than 6.00. Also, the “BAF3-FGFR 1 (MIN IL3) 384 well pIC50” value in experiment [5] worked out at 5.05. The “BAF3-FGFR4 pIC50” value in experiment [7] is given as less than 5.

In the case of `COc1cc(OC)cc(N(CCNC(C)C)c2ccc3ncc(-c4cccnc4)nc3c2)c1` [Compound 10], the IC50 in experiment [1] is 5.89 nM; in experiment [2], 10.2 nM; in experiment [3], 23.4 nM; in experiment [6] (setting [8]), more than 10000 nM. For the same compound, the negative logarithm of the IC50 (pIC50) in experiment [4] is 6.53. Besides, in experiment [5], the “BAF3-FGFR 1 (MIN IL3) 384 well pIC50” value came to 7.55. In addition, the “BAF3-FGFR4 pIC50” value in experiment [7] was found to be 6.6.

As for `COc1cc(OC)cc(N(CC2CC2)c2ccc3ncc(-c4nnnn4C)nc3c2)c1` [Compound 83], the IC50 in experiment [1] is more than 1000 nM; in experiment [2], more than 1000 nM; in experiment [3], more than 1000 nM; in experiment [6] (setting [9]), more than 10000 nM; in experiment [6] (setting [8]), more than 10000 nM. The same compound gave a pIC50 in experiment [4] of less than 6.00. Besides, the “BAF3-FGFR 1 (MIN IL3) 96 well pIC50” value in experiment [5] is less than 5. Moreover, the “BAF3-FGFR 1 (MIN IL3) 384 well pIC50” value in experiment [5] is less than 5. Besides, the “BAF3-FGFR4 pIC50” value in experiment [7] is less than 5.

(Values after patent publication US10052320B2, “Substituted quinoxalines as FGFR kinase inhibitors” (ASTEX THERAPEUTICS LIMITED, priority 2011, dated 2018).)
